Experimental findings from patent US9409884B2 (Rigel Pharmaceuticals, Inc., priority 2012, dated 2016) are described below.

This experiment addresses AMPK. As to the kind of experiment: AMPK activation, enzyme-linked immunosorbent assay. The class given is biochemical. In short, it runs like this: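 AMPK activation by test compounds was measured by enzyme-linked immunosorbent assay.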

By EC50 is commonly meant the concentration that produces a half-maximal response. Higher therefore signals lower potency in that assay.

Turning to `N#Cc1ccc(CN2CCC(NC(=O)c3cc4ccc(OC5CCN(c6ccc(C(F)(F)F)cc6)CC5)cc4s3)CC2)cc1` [Compound 1-144, N-(1-(4-cyanobenzyl)piperidin-4-yl)-6-(1-(4-(trifluoromethyl)phenyl)piperidin-4-yloxy)benzo [b]thiophene-2-carboxamide], the EC50 (Table 8, compounds of Table 1) was less than 100 nM.
The same measure, in the same setting: in the case of `O=C(NC1CCN(Cc2ccccc2)CC1)c1ccc(OC2CCN(c3ccc(C(F)(F)F)cc3)CC2)cn1` [Compound 1-38, N-(1-benzylpiperidin-4-yl)-5-(1-(4-(trifluoromethyl)phenyl)piperidin-4-yloxy)picolinamide] it was 1000 to 5000 nM.
Molecule `N#Cc1ccc(CN2CCC(NC(=O)c3cc4cc(NC(=O)c5ccc(-n6cccn6)cc5)ccc4o3)CC2)cc1` [Compound 6-65, 5-(4-(1H-pyrazol-1-yl)benzamido)-N-(1-(4-cyanobenzyl)piperidin-4-yl)benzofuran-2-carboxamide] yielded an EC50 (Table 13, compounds of Table 6) of 100 to 1000 nM.
For `O=C(NC1CCN(C(=O)c2ccc(F)cc2)CC1)c1ccc2[nH]c3c(c2c1)CN(c1ccc(F)cc1)CC3` [Compound 2-39, N-(1-(4-fluorobenzoyl)piperidin-4-yl)-2-(4-fluorophenyl)-2,3,4,5-tetrahydro-1H-pyrido[4,3-b]indole-8-carboxamide], for the setting “Table 9, compounds of Table 2”, the EC50 lay within 10000 to 50000 nM.
The molecule `COc1ccc(CN2CCC(NC(=O)c3cccc(OC4CCN(Cc5cnn(-c6ccccn6)c5)CC4)c3)CC2)cc1` [Compound 5-114, N-(1-(4-methoxybenzyl)piperidin-4-yl)-3-(1-((1-(pyridin-2-yl)-1H-pyrazol-4-yl)methyl)piperidin-4-yloxy)benzamide] registered an EC50 (Table 12, compounds of Table 5) of 1000 to 10000 nM.
